Assay results: patent publication US6872690B2, “Herbicidal 2-alkynyl-pyri (mi) dines” (WYETH, priority 2001, dated 2005)

Columns and labels:
Assay type in all cases: in vivo
[1] = test system: Abutilon theophrasti; assay: Pre-emergence test; conditions: 3 weeks after treatment
Description: (§1) To evaluate their herbicidal activity, compounds according to the invention are tested using a representative range of plants:
(§2) The pre-emergence tests involve spraying a liquid formulation of the compound onto the soil in which the seeds of the plant species mentioned above has recently been sown.
(§3) The soil used in the tests is a prepared horticultural loam. The formulations used in the tests are prepared from solutions of the test compounds in acetone containing 0.4% by weight of an alkyl-phenol/ethylene oxide condensate available under the trade mark TRITON X-155. These acetone solutions are diluted with water and the resulting formulations applied at dosage levels corresponding to 0.013 kg, 0.025 kg, 0.100 kg or 0.400 kg of active material per hectare in a volume equivalent to 900 litres per hectare. In these tests untreated sown soil are used as controls. From 2 to 4 weeks after treatment, the tests are terminated and each pot is examined and rated according to the rating system set forth below: […]

[2] = test system: Alopecurus myosuroides; assay: Pre-emergence test; conditions: 3 weeks after treatment
Description: as §1, §2, §3

[3] = test system: Cassia obtusifolia; assay: Pre-emergence test; conditions: 3 weeks after treatment
Description: as §1, §2, §3

[4] = test system: Digitaria sanguinalis; assay: Pre-emergence test; conditions: 3 weeks after treatment
Description: as §1, §2, §3

[5] = test system: Echinochloa crus-galli; assay: Pre-emergence test; conditions: 3 weeks after treatment
Description: as §1, §2, §3

[6] = test system: Galium aparine; assay: Pre-emergence test; conditions: 3 weeks after treatment
Description: as §1, §2, §3

[7] = test system: Glycine max; assay: Pre-emergence test; conditions: 3 weeks after treatment
Description: as §1, §2, §3

[8] = test system: Ipomoea hederacea; assay: Pre-emergence test; conditions: 3 weeks after treatment
Description: as §1, §2, §3

[9] = test system: Lamium purpureum; assay: Pre-emergence test; conditions: 3 weeks after treatment
Description: as §1, §2, §3

[10] = test system: Matricaria inodora; assay: Pre-emergence test; conditions: 3 weeks after treatment
Description: as §1, §2, §3

[11] = test system: Orysa sativa; assay: Pre-emergence test; conditions: 3 weeks after treatment
Description: as §1, §2, §3

[12] = test system: Setaria viridis; assay: Pre-emergence test; conditions: 3 weeks after treatment
Description: as §1, §2, §3

[13] = test system: Stellaria media; assay: Pre-emergence test; conditions: 3 weeks after treatment
Description: as §1, §2, §3

[14] = test system: Triticum aestivum; assay: Pre-emergence test; conditions: 3 weeks after treatment
Description: as §1, §2, §3

[15] = test system: Zea mays; assay: Pre-emergence test; conditions: 3 weeks after treatment
Description: as §1, §2, §3

[16] = test system: Abutilon theophrasti; assay: Post-emergence herbicidal activity test; conditions: 2-4 weeks after treatment
Description: as §1
(§4) These acetone solutions are diluted with water and the resulting formulations applied at dosage levels equivalent of about 0.025 to 0. 4 kg per hectare of test compound per pot. After spraying the plants are placed on greenhouse benches and are cared for in the usual manner, commensurate with conventional greenhouse practices. From 2 to 4 weeks after treatment, the seedling plants are examined and rated according to the rating system provided above.

[17] = test system: Alopecurus myosuroides; assay: Post-emergence herbicidal activity test; conditions: 2-4 weeks after treatment
Description: as §1, §4

[18] = test system: Cassia obtusifolia; assay: Post-emergence herbicidal activity test; conditions: 2-4 weeks after treatment
Description: as §1, §4

[19] = test system: Digitaria sanguinalis; assay: Post-emergence herbicidal activity test; conditions: 2-4 weeks after treatment
Description: as §1, §4

[20] = test system: Echinochloa crus-galli; assay: Post-emergence herbicidal activity test; conditions: 2-4 weeks after treatment
Description: as §1, §4

[21] = test system: Galium aparine; assay: Post-emergence herbicidal activity test; conditions: 2-4 weeks after treatment
Description: as §1, §4

[22] = test system: Glycine max; assay: Post-emergence herbicidal activity test; conditions: 2-4 weeks after treatment
Description: as §1, §4

[23] = test system: Ipomoea hederacea; assay: Post-emergence herbicidal activity test; conditions: 2-4 weeks after treatment
Description: as §1, §4

[24] = test system: Matricaria inodora; assay: Post-emergence herbicidal activity test; conditions: 2-4 weeks after treatment
Description: as §1, §4

[25] = test system: Orysa sativa; assay: Post-emergence herbicidal activity test; conditions: 2-4 weeks after treatment
Description: as §1, §4

[26] = test system: Setaria viridis; assay: Post-emergence herbicidal activity test; conditions: 2-4 weeks after treatment
Description: as §1, §4

[27] = test system: Stellaria media; assay: Post-emergence herbicidal activity test; conditions: 2-4 weeks after treatment
Description: as §1, §4

[28] = test system: Triticum aestivum; assay: Post-emergence herbicidal activity test; conditions: 2-4 weeks after treatment
Description: as §1, §4

[29] = test system: Zea mays; assay: Post-emergence herbicidal activity test; conditions: 2-4 weeks after treatment
Description: as §1, §4

Compound: Cc1cc(C#Cc2ccccc2)nc(Oc2cc(C(F)(F)F)nn2C)c1 [Example 1, 4-methyl-6-phenylethynyl-2-(1-methyl-3-trifluoromethylpyrazol-5-yloxy)pyridine]
- Assessment (pre-emergence application) ABUTH ([1]; 0.013 kg/ha): 4 (4-Injury)
- Assessment (pre-emergence application) ABUTH ([1]; 0.100 kg/ha): 5 (5-Definite injury)
- Assessment (pre-emergence application) ABUTH ([1]; 0.400 kg/ha): 9 (9-Complete kill)
- Assessment (pre-emergence application) ALOMY ([2]; 0.013 kg/ha): 1 (1-Trace effect)
- Assessment (pre-emergence application) ALOMY ([2]; 0.025 kg/ha): 2 (2-Slight effect)
- Assessment (pre-emergence application) ALOMY ([2]; 0.100 kg/ha): 4 (4-Injury)
- Assessment (pre-emergence application) ALOMY ([2]; 0.400 kg/ha): 8 (8-Approaching complete kill)
- Assessment (pre-emergence application) CASOB ([3]; 0.013 kg/ha): 1 (1-Trace effect)
- Assessment (pre-emergence application) CASOB ([3]; 0.400 kg/ha): 8 (8-Approaching complete kill)
- Assessment (pre-emergence application) DIGSA ([4]; 0.013 kg/ha): 5 (5-Definite injury)
- Assessment (pre-emergence application) DIGSA ([4]; 0.025 kg/ha): 5 (5-Definite injury)
- Assessment (pre-emergence application) DIGSA ([4]; 0.100 kg/ha): 9 (9-Complete kill)
- Assessment (pre-emergence application) DIGSA ([4]; 0.400 kg/ha): 9 (9-Complete kill)
- Assessment (pre-emergence application) ECHCG ([5]; 0.013 kg/ha): 1 (1-Trace effect)
- Assessment (pre-emergence application) ECHCG ([5]; 0.025 kg/ha): 4 (4-Injury)
- Assessment (pre-emergence application) ECHCG ([5]; 0.100 kg/ha): 5 (5-Definite injury)
- Assessment (pre-emergence application) ECHCG ([5]; 0.400 kg/ha): 8 (8-Approaching complete kill)
- Assessment (pre-emergence application) GALAP ([6]; 0.013 kg/ha): 1 (1-Trace effect)
- Assessment (pre-emergence application) GALAP ([6]; 0.025 kg/ha): 2 (2-Slight effect)
- Assessment (pre-emergence application) GALAP ([6]; 0.100 kg/ha): 3 (3-Moderate effect)
- Assessment (pre-emergence application) GALAP ([6]; 0.400 kg/ha): 7 (7-Good herbicidal effect)
- Assessment (pre-emergence application) GLXMA ([7]; 0.100 kg/ha): 3 (3-Moderate effect)
- Assessment (pre-emergence application) GLXMA ([7]; 0.400 kg/ha): 4 (4-Injury)
- Assessment (pre-emergence application) IPOHE ([8]; 0.013 kg/ha): 3 (3-Moderate effect)
- Assessment (pre-emergence application) IPOHE ([8]; 0.100 kg/ha): 4 (4-Injury)
- Assessment (pre-emergence application) IPOHE ([8]; 0.400 kg/ha): 9 (9-Complete kill)
- Assessment (pre-emergence application) LAMPU ([9]; 0.013 kg/ha): 7 (7-Good herbicidal effect)
- Assessment (pre-emergence application) LAMPU ([9]; 0.100 kg/ha): 8 (8-Approaching complete kill)
- Assessment (pre-emergence application) LAMPU ([9]; 0.400 kg/ha): 8 (8-Approaching complete kill)
- Assessment (pre-emergence application) MATIN ([10]; 0.013 kg/ha): 5 (5-Definite injury)
- Assessment (pre-emergence application) MATIN ([10]; 0.025 kg/ha): 7 (7-Good herbicidal effect)
- Assessment (pre-emergence application) MATIN ([10]; 0.100 kg/ha): 8 (8-Approaching complete kill)
- Assessment (pre-emergence application) MATIN ([10]; 0.400 kg/ha): 8 (8-Approaching complete kill)
- Assessment (pre-emergence application) ORYSA ([11]; 0.013 kg/ha): 1 (1-Trace effect)
- Assessment (pre-emergence application) ORYSA ([11]; 0.025 kg/ha): 2 (2-Slight effect)
- Assessment (pre-emergence application) ORYSA ([11]; 0.100 kg/ha): 3 (3-Moderate effect)
- Assessment (pre-emergence application) ORYSA ([11]; 0.400 kg/ha): 5 (5-Definite injury)
- Assessment (pre-emergence application) SETVI ([12]; 0.013 kg/ha): 4 (4-Injury)
- Assessment (pre-emergence application) SETVI ([12]; 0.025 kg/ha): 7 (7-Good herbicidal effect)
- Assessment (pre-emergence application) SETVI ([12]; 0.100 kg/ha): 8 (8-Approaching complete kill)
- Assessment (pre-emergence application) SETVI ([12]; 0.400 kg/ha): 9 (9-Complete kill)
- Assessment (pre-emergence application) STEME ([13]; 0.013 kg/ha): 5 (5-Definite injury)
- Assessment (pre-emergence application) STEME ([13]; 0.025 kg/ha): 8 (8-Approaching complete kill)
- Assessment (pre-emergence application) STEME ([13]; 0.100 kg/ha): 9 (9-Complete kill)
- Assessment (pre-emergence application) STEME ([13]; 0.400 kg/ha): 9 (9-Complete kill)
- Assessment (pre-emergence application) TRZWA ([14]; 0.013 kg/ha): 0 (0-No effect)
- Assessment (pre-emergence application) TRZWA ([14]; 0.025 kg/ha): 0 (0-No effect)
- Assessment (pre-emergence application) TRZWA ([14]; 0.100 kg/ha): 2 (2-Slight effect)
- Assessment (pre-emergence application) TRZWA ([14]; 0.400 kg/ha): 3 (3-Moderate effect)
- Assessment (pre-emergence application) ZEAMX ([15]; 0.013 kg/ha): 1 (1-Trace effect)
- Assessment (pre-emergence application) ZEAMX ([15]; 0.025 kg/ha): 2 (2-Slight effect)
- Assessment (pre-emergence application) ZEAMX ([15]; 0.100 kg/ha): 2 (2-Slight effect)
- Assessment (pre-emergence application) ZEAMX ([15]; 0.400 kg/ha): 4 (4-Injury)
- Post-emergence application ABUTH ([16]; 0.025 kg/ha): 4 (4-Injury)
- Post-emergence application ABUTH ([16]; 0.100 kg/ha): 5 (5-Definite injury)
- Post-emergence application ABUTH ([16]; 0.400 kg/ha): 6 (6-Herbicidal effect)
- Post-emergence application ALOMY ([17]; 0.025 kg/ha): 4 (4-Injury)
- Post-emergence application ALOMY ([17]; 0.100 kg/ha): 7 (7-Good herbicidal effect)
- Post-emergence application ALOMY ([17]; 0.400 kg/ha): 8 (8-Approaching complete kill)
- Post-emergence application CASOB ([18]; 0.025 kg/ha): 6 (6-Herbicidal effect)
- Post-emergence application CASOB ([18]; 0.100 kg/ha): 7 (7-Good herbicidal effect)
- Post-emergence application CASOB ([18]; 0.400 kg/ha): 7 (7-Good herbicidal effect)
- Post-emergence application DIGSA ([19]; 0.025 kg/ha): 3 (3-Moderate effect)
- Post-emergence application DIGSA ([19]; 0.100 kg/ha): 7 (7-Good herbicidal effect)
- Post-emergence application DIGSA ([19]; 0.400 kg/ha): 7 (7-Good herbicidal effect)
- Post-emergence application ECHCG ([20]; 0.025 kg/ha): 4 (4-Injury)
- Post-emergence application ECHCG ([20]; 0.100 kg/ha): 7 (7-Good herbicidal effect)
- Post-emergence application ECHCG ([20]; 0.400 kg/ha): 8 (8-Approaching complete kill)
- Post-emergence application GALAP ([21]; 0.025 kg/ha): 6 (6-Herbicidal effect)
- Post-emergence application GALAP ([21]; 0.100 kg/ha): 6 (6-Herbicidal effect)
- Post-emergence application GALAP ([21]; 0.400 kg/ha): 6 (6-Herbicidal effect)
- Post-emergence application GLXMA ([22]; 0.025 kg/ha): 5 (5-Definite injury)
- Post-emergence application GLXMA ([22]; 0.100 kg/ha): 6 (6-Herbicidal effect)
- Post-emergence application GLXMA ([22]; 0.400 kg/ha): 6 (6-Herbicidal effect)
- Post-emergence application IPOHE ([23]; 0.025 kg/ha): 6 (6-Herbicidal effect)
- Post-emergence application IPOHE ([23]; 0.400 kg/ha): 8 (8-Approaching complete kill)
- Post-emergence application MATIN ([24]; 0.025 kg/ha): 4 (4-Injury)
- Post-emergence application MATIN ([24]; 0.100 kg/ha): 5 (5-Definite injury)
- Post-emergence application MATIN ([24]; 0.400 kg/ha): 6 (6-Herbicidal effect)
- Post-emergence application ORYSA ([25]; 0.025 kg/ha): 2 (2-Slight effect)
- Post-emergence application ORYSA ([25]; 0.100 kg/ha): 3 (3-Moderate effect)
- Post-emergence application ORYSA ([25]; 0.400 kg/ha): 4 (4-Injury)
- Post-emergence application SETVI ([26]; 0.025 kg/ha): 7 (7-Good herbicidal effect)
- Post-emergence application SETVI ([26]; 0.100 kg/ha): 8 (8-Approaching complete kill)
- Post-emergence application SETVI ([26]; 0.400 kg/ha): 8 (8-Approaching complete kill)
- Post-emergence application STEME ([27]; 0.025 kg/ha): 5 (5-Definite injury)
- Post-emergence application STEME ([27]; 0.100 kg/ha): 6 (6-Herbicidal effect)
- Post-emergence application STEME ([27]; 0.400 kg/ha): 7 (7-Good herbicidal effect)
- Post-emergence application TRZWA ([28]; 0.025 kg/ha): 2 (2-Slight effect)
- Post-emergence application TRZWA ([28]; 0.100 kg/ha): 3 (3-Moderate effect)
- Post-emergence application TRZWA ([28]; 0.400 kg/ha): 3 (3-Moderate effect)
- Post-emergence application ZEAMX ([29]; 0.025 kg/ha): 2 (2-Slight effect)
- Post-emergence application ZEAMX ([29]; 0.100 kg/ha): 4 (4-Injury)
- Post-emergence application ZEAMX ([29]; 0.400 kg/ha): 5 (5-Definite injury)
